The record followed here is patent publication US12054502B2, “Multifunctional immunity-targeted micromolecule anti-cancer medicine Bestazomib (Bestazomib) and preparation method and application thereof” (SHANDONG HUBBLE KISEN BIOLOGICAL TECHNOLOGY CO., LTD., priority 2018, dated 2024).

Counter-ions that a name gives are not always drawn. Like-named read-outs stand apart in the source and are kept apart here.

The subject of experiment [1] is human lung cancer A549 cell. In words: MTT cell proliferation inhibition, A549. In kind it is cell-based. The conditions noted are these: average of three tests, read-out: IC50 tumor cell proliferation, A549. The source says: (§1) The in vitro cell proliferation inhibitory activity test of the target compound adopts the MTT method. Human leukemia K562 cell line, human myeloma U266 cell line, human lung cancer A549 cell, human prostate cancer PC-3 cell line, human lymphoma U937 cell line, human liver cancer PLC/PRF/5 cell line, and human embryonic kidney cell HEK293, human normal hepatocyte HL7702 were taken, and all adopted routine culture. Logarithmic growth phase cells were used in the experiment. The cell suspensions of the above cells were taken and counted under an inverted microscope, and the medium was added to adjust the number of cells to 1×10^5/mL. A 96-well cell culture plate was taken for cell inoculation and drug experiment. The peripheral holes are not used (filled with sterile PBS). Blank control group, negative control group, positive control group and a drug experiment group were set up. The blank control group only added 150 L/Well of cell culture solution, the negative control group was inoculated with 100 µL/well of cell suspension and 50 µL/well of cell culture medium was added, the positive control group was inoculated with 100 µL/well of cell suspension and 50 µL/well of positive control drug solution was added, and the drug experiment group was inoculated with 100 L/Well of cell suspension and 50 µL/well of the test compound solution was added, the positive control group and the drug experimental group are respectively set up with 5 different final drug concentrations: […], 3 parallel re-wells for each drug concentration. After the drug was added, the 96-well cell culture plate was incubated at 37° C., 5% CO2 and saturated humidity for 48 hours, and 10 μL of 0.5% MTT staining solution was added to each well. […] Measure the OD value of each well with a microplate reader at a wavelength of 570 nm, and the cell growth inhibition rate is calculated according to the following formula: […]

The subject of experiment [2] is human prostate cancer PC-3 cell line. In words: MTT cell proliferation inhibition, PC-3. To be noted: average of three tests, read-out: IC50 tumor cell proliferation, PC-3. In kind it is cell-based.
Description: as §1

The test system of experiment [3] is human lymphoma U937 cell line. Briefly: MTT cell proliferation inhibition, U937. In kind it is cell-based. To be noted: average of three tests, read-out: IC50 tumor cell proliferation, U937.
Description: as §1

Experiment [4] relates to human liver cancer PLC/PRF/5 cell line. In words: MTT cell proliferation inhibition, PLC/PRF/5. In kind it is cell-based. To be noted: average of three tests, read-out: IC50 tumor cell proliferation, PLC/PRF/5.
Description: as §1

Experiment [5] deals with human myeloma U266 cell line. In words: MTT cell proliferation inhibition, U266. The class given is cell-based. The conditions noted are these: average of three tests, read-out: IC50 tumor cell proliferation, U266.
Description: as §1

The test system of experiment [6] is Human leukemia K562 cell line. Briefly: MTT cell proliferation inhibition, K562. The class given is cell-based. To be noted: average of three tests, read-out: IC50 tumor cell proliferation, K562.
Description: as §1

Experiment [7] has as its target 20S Proteasome (Homo sapiens (Human), UniProt P28074). Briefly: 20S proteasome detection kit, in vitro proteasome activity test (7-AMC fluorescence). The class given is biochemical. To be noted: average of three tests. The source says:
The proteasome interacts with its substrate to produce the fluorescent substance 7-amino-4-methylcoumarin (7-AMC), and the concentration of 7-AMC is positively correlated with the activity of the proteasome. Measure the fluorescence intensity at 380/460 nm to calculate the inhibition rate based on the absorbance of the inhibitor group and the control group, and calculate the IC50 value.

For experiment [8], the system named is H22 liver ascites model. In words: Survival test of H22 liver ascites model. The class given is in vivo, Kunming mice. To be noted: equal molar amount with Ixazomib, FIG. 5-6. The method, then: Take well-grown H22 mice with liver cancer, extract ascites, add sterile PBS solution to dilute to a concentration of 2.5×10^7/mL, and inoculate the abdominal cavity of Kunming mice with 200 μL each. 5 days later, the animals were randomly grouped to administrate the drug. The day of inoculation was the first day. The body weight of the animals was recorded at the time of administration. The mice were randomly weighed and divided into the following 6 groups, with 10 mice in each group. […] The mice were administered according to the predetermined dosage, weighed and recorded respectively.
(§2) Use Origin7.5 software's one-way analysis of variance (One-Way ANOVA) function to calculate the overall difference; use t-test to compare each group with the blank group, and the life extension rate of each drug group was calculated by the following formula: […]

Experiment [9] relates to human embryonic kidney cell HEK293. Briefly: MTT proliferation inhibition on normal human cells, HEK293. In kind it is cell-based. The conditions noted are these: 48 hours, average of three tests. The source says:
(§3) The in vitro cell proliferation inhibitory activity test of the target compound adopts the MTT method. Human leukemia K562 cell line, human myeloma U266 cell line, human lung cancer A549 cell, human prostate cancer PC-3 cell line, human lymphoma U937 cell line, human liver cancer PLC/PRF/5 cell line, and human embryonic kidney cell HEK293, human normal hepatocyte HL7702 were taken, and all adopted routine culture. Logarithmic growth phase cells were used in the experiment. The cell suspensions of the above cells were taken and counted under an inverted microscope, and the medium was added to adjust the number of cells to 1×10^5/mL. A 96-well cell culture plate was taken for cell inoculation and drug experiment. The peripheral holes are not used (filled with sterile PBS). Blank control group, negative control group, positive control group and a drug experiment group were set up. […] Measure the OD value of each well with a microplate reader at a wavelength of 570 nm, and the cell growth inhibition rate is calculated according to the following formula: […]

Experiment [10] addresses Aminopeptidase N (APN) (Homo sapiens (Human), UniProt P15144). Briefly: Inhibition of aminopeptidase N in vitro (L-leucyl p-nitroaniline substrate, absorbance 405 nm). The class given is biochemical. To be noted: average of three tests. The source says: Aminopeptidase N interacts with its commercial substrate L-leucyl p-nitroaniline (purchased from Sigma) to produce p-nitroaniline that is absorbed at 405 nm, and the concentration of p-nitroaniline is positively correlated to the enzyme activity. Measure the absorbance at 405 nm, and calculate the inhibition rate based on the absorbance of the inhibitor group and the control group, and calculate the IC50 value.

Experiment [11] relates to human normal hepatocyte HL7702. In words: MTT proliferation inhibition on normal human cells, HL7702. In kind it is cell-based. The conditions noted are these: L02, 48 hours, average of three tests.
Description: as §3

The subject of experiment [12] is macrophages. In words: Function test of clearance rate of charcoal particles (macrophage phagocytosis) in mice. The class given is in vivo, Kunming mice. To be noted: for carbon clearance index (K) / phagocytosis index(α): mice, administered 2 weeks, mean ± standard deviation. The protocol: The mononuclear macrophage system is a very important defense system, which has a powerful ability to swallow and clear foreign particles. When a certain concentration of charcoal particles enters the body through the tail vein of the mice, they are carried to the liver, spleen, etc. by the flow of blood, and the macrophages of these organs can remove these charcoal particles. Within a certain concentration range, the rate of macrophages' elimination of charcoal particles is exponentially related to their dose, that is, the rate of phagocytosis is directly proportional to the concentration of charcoal particles in the blood. Therefore, taking the logarithm of the concentration of charcoal particles in the blood of mice as the ordinate and the time as the abscissa, the slope K represents the phagocytic rate of macrophages, but this is an uncorrected phagocytic index. In fact, its phagocytic activity is also related to the weight of the liver and spleen of mice. Different weights result in different K values. Therefore, it is generally expressed by the corrected phagocytic index α, which reflects the phagocytic activity per unit tissue weight. The calculation formulas of K and a are as follows: K=(log A1−log A2)/(t2−t1) α=(k^1/3×body weight)/(liver weight+spleen weight)
Materials: Kunming mice (female, 4-5 weeks old), Indian ink, normal saline, Na2CO3 solution (0.1% g/v), UV ultraviolet visible photometer.
Kunming mice were randomly divided into groups and administered for 2 weeks. One hour after the last administration, each mouse was injected intravenously with 0.1 mL/10 g of Indian ink 5 times diluted with normal saline, and started timing immediately after injection, 20 μL of blood samples were accurately collected from the orbital venous plexus and added into 2 mL of 0.1% Na2CO3 solution at 2 min (t1) and 10 min (t2) time points, respectively. After mixing evenly, use 0.1% Na2CO3 solution as the control group, each administration group was the experimental group, the absorbance at two time points of t1 and t2 were measured by ultraviolet spectrophotometer at 600 nm, and counted as A1 and A2. The clearance index is calculated by the calculation formula of the above K value. In addition, after the completion of blood collection, the mice were sacrificed by neck removal, and the liver and spleen were taken out and weighed. Calculate the phagocytic index α.

Experiment [13] has as its system B16F10 melanoma cells. Briefly: Subcutaneous tumor survival test with B16F10 melanoma cells. The class given is in vivo, C57 mice. The protocol: The B16F10 melanoma cells in the logarithmic growth phase were taken, diluted with sterile PBS solution to a concentration of 1.5×10^7 cells/mL, and inoculated them subcutaneously in C57 mice with 150 μL each. 5 days later, the animals were randomly assigned to administer the drug. The day of inoculation was the first day. The body weight of the animals was recorded at the time of administration. The mice were randomly weighed and divided into the following 5 groups. […] The mice were administered according to the predetermined dosage, weighed and recorded respectively. Continuous observation until the death of the mouse was the end of observation, and the time of death of each mouse was recorded. The time of death of the mice in each group was counted.
as §2

The subject of experiment [14] is liver cancer H22. In words: Inhibition of liver cancer H22 lung metastasis in mice. The class given is in vivo, Kunming mice. The conditions noted are these: intragastric administration, 2.69-4.48 mg/kg, two cycles; FIG. 1-4. The method, then: Take well-grown H22 mice with liver cancer, extract ascites, add sterile PBS solution to dilute to a concentration of 2.5×10^7/mL, and inoculate Kunming mice through tail vein with 200 μL each. The Kunming mice with overweight or underweight were excluded, randomly grouped, and the drug was administrated according to the dosing schedule.
The Kunming mice inoculated with H22 tumors were weighed and randomly divided into the following 6 groups, with 7 mice in each group. […] The mice were sacrificed 13 days after the inoculation. The calculation formula for the inhibition rate of lung metastasis of liver cancer was as follows: […]

Where [15] appears, read: Homo sapiens, PLC-PRF-5, 48 hours.

Aminopeptidase N (APN), sequence (P15144 whole entry, species assumed): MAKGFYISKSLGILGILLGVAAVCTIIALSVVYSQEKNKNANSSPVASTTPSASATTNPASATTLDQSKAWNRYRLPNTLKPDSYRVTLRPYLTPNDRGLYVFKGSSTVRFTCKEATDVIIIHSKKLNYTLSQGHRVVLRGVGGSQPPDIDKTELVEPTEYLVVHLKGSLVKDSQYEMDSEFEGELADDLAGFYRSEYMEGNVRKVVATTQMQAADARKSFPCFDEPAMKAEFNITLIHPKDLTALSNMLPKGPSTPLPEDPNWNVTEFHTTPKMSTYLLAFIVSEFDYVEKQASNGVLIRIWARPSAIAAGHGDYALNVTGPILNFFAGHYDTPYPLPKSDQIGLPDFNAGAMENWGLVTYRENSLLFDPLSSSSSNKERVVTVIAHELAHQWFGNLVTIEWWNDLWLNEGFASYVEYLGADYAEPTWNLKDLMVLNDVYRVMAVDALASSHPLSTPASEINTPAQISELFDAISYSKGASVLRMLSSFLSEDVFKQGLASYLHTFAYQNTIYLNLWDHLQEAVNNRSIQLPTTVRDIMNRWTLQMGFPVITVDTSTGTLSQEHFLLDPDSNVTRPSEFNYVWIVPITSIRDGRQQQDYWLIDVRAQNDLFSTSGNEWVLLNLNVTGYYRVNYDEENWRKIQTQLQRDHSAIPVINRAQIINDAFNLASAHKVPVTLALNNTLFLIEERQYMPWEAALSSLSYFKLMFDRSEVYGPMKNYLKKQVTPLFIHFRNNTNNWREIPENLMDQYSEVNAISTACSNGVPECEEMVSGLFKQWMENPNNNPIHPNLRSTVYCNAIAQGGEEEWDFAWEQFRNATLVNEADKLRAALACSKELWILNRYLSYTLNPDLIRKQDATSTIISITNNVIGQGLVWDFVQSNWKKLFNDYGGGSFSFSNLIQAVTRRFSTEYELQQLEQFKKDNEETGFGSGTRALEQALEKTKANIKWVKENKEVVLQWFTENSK

Regarding `CC(C)C[C@H](NC(=O)[C@@H](O)[C@H](N)Cc1ccccc1)C(=O)O` [Bestatin, reference compound], the IC50 in [1] (48 hours), in [2] (48 hours), in [3] (48 hours), in experiment [4] (48 hours), in experiment [5] (48 hours) and in [6] (48 hours) was over 200 µM in each case.
For `CC(C)C[C@H](NC(=O)[C@@H](O)[C@H](N)Cc1ccccc1)B1OC(=O)C(CC(=O)O)(CC(=O)O)O1` [Bestazomib Citrate, 2,2′-(2-((R)-1-((2S,3R)-3-amino-2-hydroxy-4-phenylbutanoylamino)-3-methylbutyl)-5-oxo-1,3,2-dioxaborolan-4,4-diyl) diacetic acid], the IC50 in [1] (Homo sapiens, A549, 48 hours) worked out at 63.6 ± 5.71 µM; in [2] (Homo sapiens, PC-3, 48 hours), 45.6 ± 3.16 µM; in [7], 8.56 µM; in experiment [3] (Homo sapiens, U-937, 48 hours), 6.42 ± 0.64 µM; in experiment [4] (setting [15]), 54.7 ± 4.12 µM; in experiment [9] it was 446 ± 19.4 µM. In addition, the IC50 in experiment [10] is 2.14 µM; in experiment [5] (Homo sapiens, U-266, 48 hours) it was 21.7 ± 1.87 µM; in [11] it was 371 ± 70.9 µM; in experiment [6] (Homo sapiens, K562, 48 hours), 12.3 ± 1.46 µM. In addition, in [8], the “survival time of mice” value was “better than the prolonged time of the positive drug Ixazomib”. For the same compound, in experiment [12] (compared with positive control Ixazomib), the “phagocytic ability of macrophages in mice” value was “significantly stronger than that of the positive control Ixazomib”. In addition, the “carbon clearance index (K)” value was 0.063 ± 0.0002 in [12] (high-dose 4.48 mg/kg/4 d po.), 0.066 ± 0.0077 in [12] (low-dose 2.69 mg/kg/4 d po.) and 0.076 ± 0.0016 in experiment [12] (medium-dose 3.59 mg/kg/4 d po.). Also, the “phagocytosis index(α)” value is listed as 21.628 ± 0.026 in experiment [12] (high-dose 4.48 mg/kg/4 d po.), 24.842 ± 0.969 in experiment [12] (low-dose 2.69 mg/kg/4 d po.) and 21.620 ± 0.154 in experiment [12] (medium-dose 3.59 mg/kg/4 d po.). Further, the “survival time of B16F10 melanoma mice” value in experiment [13] (4, 6, 9 mg/kg/4d, FIG. 7) is given as “significantly prolong the survival time”. The “survival time of mice compared with Ixazomib” value in experiment [13] (medium-dose 6 mg/kg/4d and high-dose 9 mg/kg/4d vs Ixazomib 4 mg/kg/4d) is “better survival time of mice in the medium-dose and high-dose than the positive drug Ixazomib”. In experiment [14], the “anti-tumor activity (H22 lung metastasis)” value is “strong anti-tumor activity”.
Turning to `CC(C)C[C@H](NC(=O)CNC(=O)c1cc(Cl)ccc1Cl)B(O)O` [Ixazomib, reference compound], the IC50 in experiment [9] worked out at 17.1 ± 2.27 µM; in [10] it was 18.2 µM; in [11], 4.04 ± 0.63 µM.
Consider `CC(C)C[C@H](NC(=O)[C@@H](O)[C@H](N)Cc1ccccc1)B(O)O` [Bestazomib, (R)-1-((2S,3R)-3-amino-2-hydroxy-4-phenylbutyramide)-3-methylbu tylboronic acid], for which the IC50 in [1] (Homo sapiens, A549, 48 hours) was found to be 98.4 ± 7.51 µM; in [2] (Homo sapiens, PC-3, 48 hours), 65.7 ± 5.83 µM; in experiment [7], 10.2 µM; in experiment [3] (Homo sapiens, U-937, 48 hours), 15.5 ± 1.41 µM; in experiment [4] (setting [15]), 79.6 ± 6.32 µM; in [10] it was 3.87 µM. Also, the IC50 in [5] (Homo sapiens, U-266, 48 hours) came out at 36.6 ± 2.07 µM; in [6] (Homo sapiens, K562, 48 hours) it was 37.1 ± 2.28 µM.
